Test results taken from patent publication US9604997B2, “Peri-carbinols” (ALDEXA THERAPEUTICS, INC., priority 2012, dated 2017).

How the values were obtained:
[1] = Imine/oxaminal tautomerism of RAL-drug adducts by 1H NMR in CDCl3; format: physicochemical; settings: in CDCl3 at 25° C.; for ΔGT, free energy change of tautomerism from imine to oxaminal (ring closed): ΔGT=−RT ln KT
Experimental: [formula] ΔGT: free energy change of tautomerism from imine to oxaminal. ΔGT=−RT ln KT (4) General Methods.
Preparation of the adducts RAL-1, RAL-2 and RAL-3 of RAL with Compounds 1, 2 and 3. Mixtures of 25.6 mg (0.09 mmol) RAL and 0.11 mmol of either Compound 1 or 2, or Compound 3 (2-[3-amino-6-chloroquinolin-2-yl]propan-2-ol, wherein the carbinol has no peri-interaction), in 1 mL dry benzene were stirred in the dark under argon at room temperature for 1 hr. The mixtures were evaporated to dryness and the residues evaporated twice from 2 mL benzene. The residues were dissolved in 1 mL benzene, allowed to stand 1 hr at room temperature and evaporated to dryness. The residues were evaporated from benzene (3×2 mL), redesolved in 0.5 mL dry benzene, and the solutions loaded on silica gel columns. The columns were first eluted with hexanes, and further eluted with 50:1 (v/v) hexanes-ethyl acetate. The fractions containing the adducts were evaporated to dryness to provide pure RAL-1, RAL-2 and RAL-3. The adducts were dissolved in 0.8 mL dry CDCl3, and the ratio of imine and oxaminal tautomers were determined from their ^1H NMR spectra. The values of KT and ΔGT were calculated according to equations (3) and (4).

[2] = RAL depletion kinetics by drug in rod outer segment preparation; format: biochemical, bovine; settings: for Kapp, apparent equilibrium constant of RAL depletion by drug: rod outer segment prep containing 64 μM opsin at 37° C.; for kapp, apparent second order rate constant of RAL depletion by drug / ΔGapp, apparent free energy change of RAL depletion by drug: rod outer segment preparation containing 64 μM opsin at 37° C.; for ΔGapp, apparent free energy change of RAL depletion by drug: ΔGapp=−RT ln Kapp
Source text: The parameters associated with the analysis of RAL depletion kinetics are as follows:
[drawing 47] kapp: apparent second order rate constant of RAL depletion by drug. Kapp: apparent equilibrium constant of RAL depletion by drug.
[formula] ΔGapp: apparent free energy change of RAL depletion by drug. ΔGapp=−RT ln Kapp (2) KT: equilibrium constant of tautomerism from imine (ring opened) to oxaminal (ring closed).
Determination of kapp, Kapp and ΔGapp in rod outer segments. Frozen bovine rod outer segment preparation (64 μM of opsin) was thawed and vortexed thoroughly. A 200 μL aliquot of this sample was transferred into a 0.5 mL Eppendorf tube. To it was added 10 μL of 20 mM drug stock solution in EtOH, and the mixture vortexed for 1 min. The tube was incubated at 37° C. in a Thermo Scientific microprocessor controlled 280 series water bath for 3 min before 5 μL freshly prepared 2.4 mM RAL solution in EtOH was added (the nominal starting concentrations of drug and RAL are 1.00 mM and 60 μM, respectively). After vortexing for 1 min, the tube was incubated at 37° C. and aliquots of the reaction mixture (25 μL each) were taken periodically and added onto 10 mg of solid NaBH4 in a 0.5 mL Eppendorf tube. To the latter was added 400 μL of 2:1 (v/v) EtOH/HOAc. The reduction mixture was vortexed for 1 min and centrifuged. The supernatant was separated, and analyzed by HPLC using a standard HPLC method: • Instrument: HPLC-PE-97 • Column: Waters Sunfire C18 3.5 μm/4.6×100 mm column • Solvent A: 0.05% HCOOH/95% HPLC grade water/5% HPLC grade MeCN • Solvent B: 0.05% HCOOH HPLC grade MeCN • Pump program: 0-3 min 5-100% B, 3-30 min 100% B, 31-32 min 100%-5% B, 32-35 min 5% B • Flow rate: 1 mL/min • Detector wavelengths: 329 and 250 nm • Reference wavelength: 400 nm • Injection volume: 50 μL.
The RAL depletion percentages were calculated by normalization of retinol (ROL) and RAL-drug peak integrals, which were then plotted against reaction time. Least squares fit of the RAL depletion plot according to pseudo-first order kinetics yielded observed first order rate constant kobsd, and kapp is calculated according to kobsd=kapp[drug]. Kapp was calculated from the equilibrium concentrations of free RAL, free drug and RAL-drug according to equation (1). ΔGapp was calculated according to equation (2).

Row | SMILES | KT, equilibrium constant of tautomerism from imine to oxaminal (ring closed) [1] | ΔGT, free energy change of tautomerism from imine to oxaminal (ring closed) [1] | Kapp, apparent equilibrium constant of RAL depletion by drug [2] | kapp, apparent second order rate constant of RAL depletion by drug [2] [M⁻¹ s⁻¹] | ΔGapp, apparent free energy change of RAL depletion by drug [2] [kJ/mol]
1 | CC(C)(O)c1nc2ccc(Cl)cc2cc1N [Compound 3, 2-[3-amino-6-chloroquinolin-2-yl]propan-2-ol, reference compound] | 1.3 | -0.649 kJ/mol | 1.55 × 10^5 | 0.9917 | -31
2 | CC(C)(O)c1c(N)cnc2ccc(Cl)c(F)c12 [Compound 1, 2-(3-amino-6-chloro-5-fluoroquinolin-4-yl)propan-2-ol] | >>1000 | <<−4 kcal/mol | >2 × 10^7 | 0.8556 | <-41.8
3 | CC(C)(O)c1c(N)cnc2ccc(Cl)cc12 [Compound 2, 2-(3-amino-6-chloroquinolin-4-yl)propan-2-ol] | >>1000 | <<−4 kcal/mol | >2 × 10^7 | 0.5278 | <-41.8
